These results are taken from patent publication US10048278B2, “Screening for neurotoxic amino acid associated with neurological disorders” (priority 2003, dated 2018).

The conditions of data set [1]: Banack & Cox, 2003; cited from earlier work.
A short description of data set [2]: BMAA in dried skin of flying fox museum specimens (HPLC). As to conditions: Pteropus mariannus dried skin. As for the experimental part: BMAA levels were measured in tissues of Cycas micronesica Hill from Guam, and tissues of Pteropus mariannus mariannus, an indigenous flying fox (bat) of Guam. Because Pteropus mariannus mariannus is now highly endangered, BMAA levels were measured in skin tissue from museum specimens of three flying foxes that were collected five decades ago in Guam, preserved as dried study skins, and deposited at the Museum of Vertebrate Zoology (MVZ), at the University of California, Berkeley.
BMAA was detected using high performance liquid chromatography (HPLC), and results were confirmed with thin layer chromatography (TLC) and gas chromatography-mass spectroscopy (GC-MS). For BMAA analysis, free amino acid extracts of flying fox and cycad tissues were prepared. Tissue samples were rehydrated for 30 minutes with water or trichloroacetic acid (mean tissue prep 80 mg/ml±32 SD), macerated, and filtered. Extracts were derivatized with 6-aminoquinolyl-N-hydrozysuccinimidyl carbamate (ACQ) following standardized protocols. […] The concentration of BMAA in samples was determined by the fluorescent tag using a Waters 2487 Dual-1 Fluorescence Detector, with excitation at 250 nm and emission at 395 nm. Detection of the ACQ-derivatized BMAA was dependent on concentration and quantification was accomplished with comparison of equal amounts of BMAA and a norleucine internal standard (representing a single mid-range concentration) resulting in a mean response of 51.2%. […] The limits of detection (LOD, defined as the lowest concentration of an analyte in a sample that can be detected though not necessarily quantitated) and limits of quantification (LOQ, the concentration within the linear range of the calibration curve relating absorbance to concentration) were determined by a concentration gradient of an authenticated standard (Sigma Chemical Co., St. Louis, Mo.). […] For data interpretations, all sample analyses were quantified within the range of the LOQ or were reported as not detected (ND) (Table 1). […]

The conditions of data set [3]: rats; cited from earlier work.
Data set [4] can be described thus: Free and protein-associated BMAA in superior frontal gyrus tissue of patients. The arrangement: species or system human. As for the experimental part: Tissues were provided by Dr. Patrick McGeer of the University of British Columbia, Vancouver, B.C., Canada. Autopsied tissues from patients were fixed in paraformaldehyde prior to storage in 15% buffered sucrose maintenance solution, where the time interval between death and autopsy varied from 4 hours to 5 days. Familial relationships, clinical histories, and histochemical characteristics of the Chamorro patients had been disclosed previously (McGeer et al, 1997, Neurology 49, 400-409). In addition, autopsied tissued from Canadian patients was provided, including two samples from two (2) Canadian patients who were clinically diagnosed with Alzheimer's disease prior to death, and thirteen (13) Canadian patients who died of natural causes other than progressive neurodegenerative diseases.
Tissues were homogenized twice in 0.1 N trichloroacetic acid and centrifuged at 15,800×g for 3 min to precipitate proteins and extract free amino acids. Protein-bound BMAA was released by hydrolysis of the precipitate at 110° C. in constant boiling 6N HCl for 24 hours. Particulate matter was removed from a 500 μl aliquot by ultrafiltration (Ultrafree-MC, Millipore Corp.) at 15,800×g and the resulting extract was freeze-dried. Amino acids were resuspended in 20 mM HCl, applied to a Sep-Pac C18 cartridge equilibrated with sequential washes of 100% methanol, 50% methanol in water, and a gradient of borate buffer:acetronitrile (0.5M borate:0-60% CH3CN) at 20% increments. BMAA in sample extracts was derivatized with 6-aminoquinolyl-N-hydroxysuccinimidyl carbamate following standardized protocols (Banack et al., 2003, Neurology 61: 387-389). Amino acids were quantified via HPLC separation as described above (Example 3). The presence of BMAA in the samples, as well as the identity and purity of the BMAA peak in the HPLC fractions, was verified by liquid chromatography mass spectroscopy (LC-MS) using an Agilent 1100 HPLC coupled with a variable wavelength diode array detector (DAD) and an SL single quadrapole MS with an atmospheric pressure ionization source (API) using the electrospray ionization interface (ESI). Compounds were separated on a Waters SymetryShield RP 18 column heated at 30° C. with a linear gradient elution of CH3CN (10 40%) in water. Nitrogen gas was purified and supplied to the ESI interface with a nebulizing pressure of 35 psi and two distinct modes were used for detection of compounds within the MS. The DAD detected compounds at 254 nm with a full spectral scan from 200 600 nm and 0.5 nm resolution within a semi micro flow cell. The initial signal was determined in positive scan mode with a 100 600 Da range at 50V fragmentor voltage. BMAA was identified using the extracted ion chromatogram in which the molecular ion peak was confirmed.

The subject of another data set is cyanobacterial symbiont. As to the kind of experiment: Effect of amino acid supplementation of BG-11 medium on cyanobacterial growth. As to conditions: BG-11 medium supplemented with glutamate or glutamine (0, 126, or 250 μmol/L). The class given is cell-based, Nostoc. The text has this: Cyanobacterial symbionts were isolated from infected coralloid roots of Cycas micronesica Hill, harvested from three accessioned specimens (vouchered specimens of known provenance) growing in the National Tropical Botanical Garden, Kalaheo, Kauai, and grown as an axenic culture with repeated passages. For analysis of cycad root tissues infected with cyanobacterial symbiots, soil-borne bacteria were removed from root tissues of Cycas micronesica Hill by surface-sterilizing roots immersion in a solution of 70% ethanol for 3 min, followed by a 30 min immersion in 1.6% sodium hypochlorite with 2 drops of surfactant and 3 sequential washes with sterile deionized water. Surface-sterilized root explants (1-2 cm long) were excised and cultured onto standard BG-11 medium, pH 7.1 solidified with gellam gum (Sigma). Root explant cultures were incubated in a controlled environment room with a 16 h photoperiod at a light intensity of 35-45 μmole/m^2/s and temperatures of 25-30° C. After 7-10 days of culture, proliferation of colonies of the cyanobacterial symbiont of the root explants was clearly visible. Serial subculture of individual cyanobacterial colonies ensured the absence of residual BMAA from root tissue. […] Histological verification of culture purity was conducted prior to chemical analyses. […]

[5] abbreviates: superior frontal gyrus, Alzheimer's, Canadian (first patient).
Where [6] appears, read: superior frontal gyrus, Alzheimer's, Canadian (second patient).
[7] abbreviates: superior frontal gyrus, PDC (Lytico-bodig), Chamorro, donor one.

Take `CNC[C@H](N)C(=O)O` [BMAA, β-N-methylamino-L-alanine]: the “stability in dried mammal specimens of great age” value in data set [1] is given as “stable”. Besides, the results for the Concentration in data set [2] (specimen 114606), in data set [2] (specimen 114607) and in data set [2] (specimen 114609) were 1,879 μg/g, 7,502 μg/g and 1,287 μg/g, respectively. The “injected BMAA not eliminated from either urine or feces” value in data set [3] is 90%. Further, the “quantity of protein-bound BMAA compared to free BMAA” value in data set [4] (brain tissue, all other patients) is 60-130 fold. The “BMAA recovered from the protein-bound fraction” value in data set [4] (brain tissue, one Lytico-Bodig (ALS-PDC) patient with no unbound BMAA) was “more than 1 mg/g”. The “Protein-bound BMAA” value is 149 to 1190 µg/g in data set [4] (frontal cortex tissue, all six Chamorro patients who had died from ALS-PDC); 220 µg/g in data set [4] (setting [5]); 264 µg/g in data set [4] (setting [6]); 433 µg/g in data set [4] (setting [7]). In addition, the “Free BMAA” value in data set [4] (frontal cortex tissue, five of six Chamorro patients who had died from ALS-PDC) is 3 to 10 µg/g; in data set [4] (setting [5]) it was 3.4 µg/g; in data set [4] (setting [6]) it was 9.7 µg/g; in data set [4] (setting [7]), 3.3 µg/g. Besides, the “BMAA level in brain tissue” value in data set [4] (thirteen Canadian patients without Alzheimer's diagnosis who died of other causes) is “did not have detectable levels”.
Turning to `N[C@@H](CCC(=O)O)C(=O)O` [GLU, glutamic acid], the cyanobacterial growth entry with cyanobacterial symbiont is reported as “increased two-fold”.
On the same count and under the same terms, the value for `NC(=O)CC[C@H](N)C(=O)O` [glutamine] was “increased two-fold”.
